Data taken from PMC3466217, “A Novel Magnetic Nanoparticle Drug Carrier for Enhanced Cancer Chemotherapy” (PLoS ONE, 2012).
Converted amounts (≈) assume the structure as drawn.

Tests used:
[1] = DOX biodistribution in H22 tumor-bearing mice; format: in vivo, BALB/c mice; settings: 5 mg DOX/kg, tail vein, 0.5 hr after treatment, no EMF
Protocol: The blood, main organs (heart, lung, liver, spleen, kidney), and the tumor of each mouse were harvested for quantitative analysis of the DOX biodistribution. The blood was centrifuged at 5,000 rpm for 1 min at 4°C and the supernatant was obtained by adding 180 µl methanol and 20 µl of inner standard solution (0.2 mg/ml daunorubicin solution dissolved in methanol) to a 2-ml tube containing 200 µl plasma. For the organ (heart, lung, liver, spleen, kidney) and tumor samples, the frozen tissues were weighed and homogenized at 4°C in 0.9% NaCl to a total volume of 10 ml, and centrifuged at 5,000 rpm for 1 min at 4°C to retrieve the supernatant.
A total volume of 200 µl of the plasma, or the supernatant of homogenized tissue, or the tumor samples was then mixed with 180 µl methanols and 20 µl inner standard solutions, followed by 0.4 g sodium sulfate. The mixture was homogenized by vortexing for 5 min and then incubated at 4°C for 1 hr. After the 1-hr incubation, the mixture was centrifuged at 12,000 rpm for 15 min. […] Finally, the percent-injected dose per gram tissue of the tissue and tumor samples was calculated.

[2] = test system: H22 hepatoma cell tumor; test: Chemotherapy experiments in H22 tumor-bearing mice (tumor volume, life span, histology); settings: no EMF
Protocol: The mouse hepatoma H22 cell line was grown in RPMI-1640 medium supplemented with 10% FBS, 100 units/ml of penicillin and 100 µg/ml of streptomycin at 37°C and 5% CO2. BALB/c mice (4- to 8-week-old males, body weight 26±5 g) were housed (one mouse per cage) under specific pathogen-free conditions, maintained on a 12-hour light-dark cycle with controlled temperature (20–24°C), and were given sterile food. The tumor-bearing mouse model was generated by subcutaneous injection of 4×10^5 H22 cells with 50 µl phosphate-buffered saline (PBS) into the shaved right flank. The treatment protocol required the mice to be anesthetized and these were anesthetized with ketamine (80 mg/kg) and xylazine (3 mg/kg), and acepromazine (2 mg/kg) via intraperitoneal injection (IP). If an additional dose was needed, ketamine alone was used.
The doses were normalized to 5 mg DOX per kg body weight when the tumor volume reached 50 to 100 mm^3 (∼10 days after tumor cell inoculation). The volume for 150 µl was injected via the tail vein and the treatment was carried out three times without interval in three weeks.
Chemotherapy experiments: H22 tumor-bearing mice (4 groups; for each group, n = 18) were used and the treatment was performed as described above. The antitumor effect was assessed by the following steps: 1) six mice were sacrificed for each group on the 24th day following treatment. The tumors were harvested and fixed in 10% formalin, embedded in paraffin and sectioned (5 µm coupes) for hematoxylin–eosin (HE) staining for microscopic examination purposes; 2) tumor sizes (4 groups; for each group, n = 12) were measured by a caliper before therapy and every three days after treatment using the following equation: tumor volume (V, mm^3) = (tumor length×tumor width)^2/2. The life span of each animal was also recorded. The relative tumor volume was calculated from V = V/V0, where V0 is the tumor volume at the beginning of treatment. The endpoints of the antitumor effect were evaluated by the degree of tumor growth inhibition and life span after treatment.

[3] = test system: H22 cells; test: Cytotoxicity in H22 cell culture (MTT assay); format: cell-based, mouse; settings: 24 hrs, concentration as DOX
Protocol: A volume of 180 µl of H22 cells were seeded in 96-well plates (4,000 cells/well).
Control cells were cultured in medium only. Thiazolyl blue tetrazolium bromide (25 µl of 5 mg/ml) (MTT, AMRESCO Inc, Solon, OH) was added to each well and incubated for 4 hrs. The culture medium was removed from the wells and replaced with 150 µl dimethylsulfoxide (DMSO, BioTek, Winooski, VT). After shaking gently for 15 min at 25°C, the DMSO solution was transferred to centrifugation tubes and centrifuged at 2,000 rpm for 5 min. The absorbance was then measured at 570 nm with an ELx-800 Universal Microplate Reader (BioTek, Winooski, VT). […] The half-maximal inhibitory concentration (IC50; drug concentration corresponding to 50% growth inhibition) was calculated using SigmaPlot 9.0 software (Systat Software Inc., San Jose, CA) and the 4-parameter logistic function standard curve analysis for dose response.

What does the source list for `COc1cccc2c1C(=O)c1c(O)c3c(c(O)c1C2=O)C[C@@](O)(C(=O)CO)C[C@@H]3O[C@H]1C[C@H](N)[C@H](O)[C@H](C)O1` [DOX, doxorubicin]?
DOX concentrations in the other organs (heart, lung and kidney) [1]: Very low concentrations; percent injected dose per gram tissue in blood [1]: 1.07%; percent injected dose per gram tissue in livers [1]: 0.402%; percent injected dose per gram tissue in spleens [1]: 0.634%; percent injected dose per gram tissue in tumors [1]: 0.741%; life span of tumor-bearing mice ([2]; 5 mg DOX/kg iv three times): 31.3 ± 3.31 days; tumor histology (HE staining) ([2]; 24th day following treatment): A few necrotic cells were observed; relative tumor volume (V/V0) ([2]; 21 days after start of treatment, 5 mg DOX/kg iv three times): 7.08±1.68; survival rate of tumor-bearing mice ([2]; following treatment for 33 days): 33.3%; IC50 (cell inhibition rate) [3]: 0.530 ± 0.010 µg/mL (≈ 0.975 µM)
